Test results taken from ChEMBL document CHEMBL3853353, “Identification and optimization of a new series of anti-tubercular quinazolinones” (Bioorg Med Chem Lett, 2016).
In brackets after ≈: the same amount, converted by molar mass. Activity calls are given as the source filed them. No cut-off for these calls is given here.

Experiments:
[1] = tested on: Mycobacterium tuberculosis; assay: Antimycobacterial activity against Mycobacterium tuberculosis H37Rv incubated for 5 days by Bactiter-Glo assay; format: functional; conditions: 120 h
[2] = Cytotoxicity against human HepG2 cells assessed as reduction in cell viability after 40 hrs by Celltiter-Glo assay
[3] = tested on: Mycobacterium tuberculosis; assay: Antimycobacterial activity against Mycobacterium tuberculosis H37Rv incubated for 5 days in presence of 25% human serum by Bactiter-Glo assay; format: functional; conditions: 120 h
[4] = tested on: Mycobacterium tuberculosis; assay: Antimycobacterial activity against GFP-tagged Mycobacterium tuberculosis H37Rv infected in mouse RAW264.7 cells incubated for 4 days by Mask blue/Hoechst/FITC staining based fluorescence microscopic analysis; format: functional; conditions: 96 h
[5] = tested on: Mycobacterium tuberculosis; assay: Antimycobacterial activity against Mycobacterium tuberculosis H37Rv incubated for 5 days in presence of 25% mouse serum by Bactiter-Glo assay; format: functional; conditions: 120 h
[6] = Protein binding in human plasma at 1 to 10 uM after 4 hrs by LC-MS/MS analysis; format: ADME, cell-free; conditions: read-out: PPB (converted)
[7] = Protein binding in Swiss mouse plasma at 1 to 10 uM after 4 hrs by LC-MS/MS analysis; format: ADME, cell-free; conditions: read-out: PPB (converted)
[8] = AUC in Balb/c mouse plasma infected with Mycobacterium tuberculosis H37Rv at 100 mg/kg, po administered through gavage as VitE/PEG200/HPC formulation; format: ADME, organism-based
[9] = Half life in Balb/c mouse infected with Mycobacterium tuberculosis H37Rv at 100 mg/kg, po administered through gavage as VitE/PEG200/HPC formulation; format: ADME, organism-based; conditions: in vivo
[10] = Ratio of drug level in Mycobacterium tuberculosis H37Rv infected Balb/c mouse lung to plasma at 100 mg/kg, po administered through gavage as VitE/PEG200/HPC formulation; conditions: other tissue
[11] = tested on: Mycobacterium tuberculosis; assay: (§1) Antimycobacterial activity against Mycobacterium tuberculosis H37Rv infected in Balb/c mouse assessed as bacterial burden in lungs at 10 mg/kg, po administered daily through gavage starting on day 2 post infection for 4 days per week for 2 weeks as VitE/PEG200/HPC formulation measured on day 12 post infection (reference value: 7.8 log10CFU); format: functional, Lung
[12] = tested on: Mycobacterium tuberculosis; assay: as §1, with “at 30” for “at 10”; format: functional, Lung
[13] = tested on: Mycobacterium tuberculosis; assay: as §1, with “at 100” for “at 10”; format: functional, Lung
Mus musculus = assay: Toxicity in Balb/c mouse infected with Mycobacterium tuberculosis H37Rv at 300 mg/kg, po administered through gavage as single dose; format: organism-based; conditions: in vivo
[14] = Lipophilicity, log P of compound; conditions: octanol/water
[15] = tested on: Mycobacterium tuberculosis; assay: Bacteriostatic activity against Mycobacterium tuberculosis H37Rv incubated for 5 days by Bactiter-Glo assay; format: functional
[16] = tested on: Mycobacterium tuberculosis; assay: Growth inhibition of Mycobacterium tuberculosis H37Rv at 10 uM incubated for 5 days by Bactiter-Glo assay relative to control; format: functional; conditions: 120 h, read-out: GI
[17] = Aqueous equilibrium solubility of compound in pH 1 solution at 20 degC; conditions: aqueous pH 1 solution
[18] = Aqueous equilibrium solubility of compound in pH 7.4 solution at 20 degC; conditions: aqueous pH 7.4 solution
[19] = Selectivity index, ratio of IC50 for human HepG2 cells to MIC80 for Mycobacterium tuberculosis H37Rv; format: toxicity, cell-based; conditions: read-out: Selectivity Index
[20] = tested on: Mycobacterium tuberculosis; assay: Ratio of MIC80 for Mycobacterium tuberculosis H37Rv in presence of 25% human serum to MIC80 for Mycobacterium tuberculosis H37Rv; format: functional
[21] = Permeability in human Caco2 cells; conditions: caco-2
hERG (KCNH2) = hERG (KCNH2) (Homo sapiens, UniProt Q12809); assay: Inhibition of human ERG at 10 uM relative to control
Chain of hERG (KCNH2) (Q12809 whole entry): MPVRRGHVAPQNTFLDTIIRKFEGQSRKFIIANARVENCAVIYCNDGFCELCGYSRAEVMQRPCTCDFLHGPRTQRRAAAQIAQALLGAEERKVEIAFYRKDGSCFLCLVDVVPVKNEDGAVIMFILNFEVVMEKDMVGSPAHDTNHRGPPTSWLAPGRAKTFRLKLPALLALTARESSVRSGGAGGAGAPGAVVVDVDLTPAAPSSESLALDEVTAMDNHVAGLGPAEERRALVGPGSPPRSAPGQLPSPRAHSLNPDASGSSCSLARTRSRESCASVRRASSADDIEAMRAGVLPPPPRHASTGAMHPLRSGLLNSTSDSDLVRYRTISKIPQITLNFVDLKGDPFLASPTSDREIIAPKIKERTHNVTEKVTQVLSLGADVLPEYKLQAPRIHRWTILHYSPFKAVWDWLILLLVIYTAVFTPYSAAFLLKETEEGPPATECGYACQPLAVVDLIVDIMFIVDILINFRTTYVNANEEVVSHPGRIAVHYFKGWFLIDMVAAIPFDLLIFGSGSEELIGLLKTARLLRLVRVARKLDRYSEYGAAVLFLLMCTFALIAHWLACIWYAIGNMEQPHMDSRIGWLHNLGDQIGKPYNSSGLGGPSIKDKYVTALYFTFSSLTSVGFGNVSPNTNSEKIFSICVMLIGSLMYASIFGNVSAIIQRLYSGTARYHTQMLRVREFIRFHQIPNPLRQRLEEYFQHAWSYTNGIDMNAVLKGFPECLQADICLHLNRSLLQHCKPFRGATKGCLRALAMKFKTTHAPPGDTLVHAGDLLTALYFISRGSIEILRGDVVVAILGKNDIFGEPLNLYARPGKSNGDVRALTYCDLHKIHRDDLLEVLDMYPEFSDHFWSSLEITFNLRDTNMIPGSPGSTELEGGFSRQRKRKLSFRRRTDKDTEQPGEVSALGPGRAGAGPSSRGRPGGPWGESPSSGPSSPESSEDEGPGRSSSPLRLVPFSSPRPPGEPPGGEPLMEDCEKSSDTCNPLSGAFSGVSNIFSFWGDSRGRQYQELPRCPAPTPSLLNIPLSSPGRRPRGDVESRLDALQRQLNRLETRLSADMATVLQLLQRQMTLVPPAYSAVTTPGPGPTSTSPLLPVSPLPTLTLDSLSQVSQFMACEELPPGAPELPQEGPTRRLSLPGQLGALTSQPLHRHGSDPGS

Cytochrome P450 3A4 [22] = molecular target: T1, Cytochrome P450 3A4 (Homo sapiens, UniProt P08684); assay: Inhibition of CYP3A4 in human liver microsomes assessed as 6-beta-hydroxytestosterone metabolite formation using testosterone as substrate incubated for 30 mins by HPLC-MS method
T1 sequence (P08684 whole entry): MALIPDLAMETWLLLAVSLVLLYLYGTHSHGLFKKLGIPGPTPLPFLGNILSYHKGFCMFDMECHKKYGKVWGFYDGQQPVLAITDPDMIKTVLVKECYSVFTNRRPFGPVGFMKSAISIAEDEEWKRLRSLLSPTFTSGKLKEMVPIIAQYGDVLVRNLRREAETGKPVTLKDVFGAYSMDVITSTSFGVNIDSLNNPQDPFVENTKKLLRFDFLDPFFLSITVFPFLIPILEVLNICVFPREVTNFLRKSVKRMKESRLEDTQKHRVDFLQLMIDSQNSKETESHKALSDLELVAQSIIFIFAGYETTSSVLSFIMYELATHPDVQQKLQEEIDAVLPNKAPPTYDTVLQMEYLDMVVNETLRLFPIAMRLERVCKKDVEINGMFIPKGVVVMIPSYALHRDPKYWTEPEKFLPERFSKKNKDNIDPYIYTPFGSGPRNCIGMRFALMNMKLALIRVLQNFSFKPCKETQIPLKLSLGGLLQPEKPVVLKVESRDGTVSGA

Cytochrome P450 3A4 [23] = molecular target: T1, Cytochrome P450 3A4; assay: Inhibition of CYP3A4 in human liver microsomes assessed as 1'-hydroxymidazolam metabolite formation using midazolam as substrate incubated for 10 mins by HPLC-MS method
Salmonella typhimurium = assay: Genotoxicity in Salmonella typhimurium by Ames test; format: toxicity, organism-based; conditions: salmonella enterica subsp. enterica serovar typhimurium
[24] = Drug metabolism in human liver microsomes assessed as CYP450/FMO-mediated demethylation of methoxy group/hydroxylation of distal aryl ring at 5 uM after 20 mins in presence of NADPH; format: ADME
[25] = Drug metabolism in human hepatocytes assessed as demethylation of methoxy group/hydroxylation of distal aryl ring; format: ADME, cell-based, Hepatocyte
[26] = tested on: Mycobacterium tuberculosis; assay: (§2) Antimycobacterial activity against Mycobacterium tuberculosis H37Rv infected in Balb/c mouse assessed as bacterial burden in lungs at 10 mg/kg, po administered daily through gavage for 2 weeks starting on day 2 post infection measured on day 12 post infection (reference value: 6.4 log10CFU); format: functional, Lung
[27] = tested on: Mycobacterium tuberculosis; assay: as §1, with “weeks” for “weeks as VitE/PEG200/HPC formulation”; format: functional, Lung
[28] = Bioavailability in Swiss mouse at 3 mg/kg, iv administered as single bolus dose in NMP/Solutol HS15/PBS solution after 24 hrs; format: ADME, organism-based; conditions: in vivo
[29] = AUC in Balb/c mouse plasma infected with Mycobacterium tuberculosis H37Rv at 10 to 100 mg/kg, po administered through gavage as lipidic/water formulation; format: ADME, organism-based
[30] = Time at which plasma concentration stays above invitro MIC80 in presence of mouse serum in Balb/c mouse infected with Mycobacterium tuberculosis H37Rv at 100 mg/kg, po administered through gavage as lipidic/water formulation; format: ADME, organism-based; conditions: in vivo
[31] = Time at which lung concentration stays above invitro MIC80 in presence of mouse serum in Balb/c mouse infected with Mycobacterium tuberculosis H37Rv at 100 mg/kg, po administered through gavage as lipidic/water formulation; format: ADME, organism-based; conditions: in vivo
[32] = tested on: Mycobacterium tuberculosis; assay: as §1, with “at 30” for “at 10”, “as vitamin E/water” for “as VitE/PEG200/HPC”, “value: 7.6” for “value: 7.8”; format: functional, Lung
[33] = tested on: Mycobacterium tuberculosis; assay: as §1, with “at 300” for “at 10”, “as vitamin E/water” for “as VitE/PEG200/HPC”, “value: 7.6” for “value: 7.8”; format: functional, Lung
[34] = tested on: Mycobacterium tuberculosis; assay: as §1, with “at 100” for “at 10”, “as vitamin E/water” for “as VitE/PEG200/HPC”, “value: 7.6” for “value: 7.8”; format: functional, Lung
[35] = tested on: Mycobacterium tuberculosis; assay: as §1, with “at 600” for “at 10”, “as lipidic/water” for “as VitE/PEG200/HPC”, “value: 7.2” for “value: 7.8”; format: functional, Lung
[36] = tested on: Mycobacterium tuberculosis; assay: Antimycobacterial activity against Mycobacterium tuberculosis H37Rv infected in po dosed Balb/c mouse assessed as log10 reduction in CFU in lungs administered daily through gavage starting on day 2 post infection for 4 days per week for 2 weeks as lipidic/water formulation measured on day 12 post infection; format: functional; conditions: read-out: MED
[37] = tested on: Mycobacterium tuberculosis; assay: as §2, with “post infection as 5% soluplus/acetate buffer formulation measured on” for “post infection measured on”; format: functional, Lung
[38] = tested on: Mycobacterium tuberculosis; assay: as §2, with “lungs at 30 mg/kg, po” for “lungs at 10 mg/kg, po”, “post infection as 5% soluplus/acetate buffer formulation measured on” for “post infection measured on”; format: functional, Lung
[39] = tested on: Mycobacterium tuberculosis; assay: as §2, with “lungs at 100 mg/kg, po” for “lungs at 10 mg/kg, po”, “post infection as 5% soluplus/acetate buffer formulation measured on” for “post infection measured on”; format: functional, Lung
[40] = tested on: Mycobacterium tuberculosis; assay: as §2, with “lungs at 300 mg/kg, po” for “lungs at 10 mg/kg, po”, “post infection as 5% soluplus/acetate buffer formulation measured on” for “post infection measured on”; format: functional, Lung
[41] = Time at which plasma concentration stays above invitro MIC80 in presence of mouse serum Balb/c mouse infected with Mycobacterium tuberculosis H37Rv at 300 mg/kg, po administered through gavage as 5% soluplus/acetate buffer formulation; format: ADME, organism-based; conditions: in vivo
[42] = AUC in Balb/c mouse plasma infected with Mycobacterium tuberculosis H37Rv at 300 mg/kg, po administered through gavage as 5% soluplus/acetate buffer formulation; format: ADME, organism-based
[43] = AUC in Balb/c mouse lungs infected with Mycobacterium tuberculosis H37Rv at 300 mg/kg, po administered through gavage as 5% soluplus/acetate buffer formulation; format: ADME, organism-based; conditions: lung
[44] = tested on: Mycobacterium tuberculosis; assay: Antimycobacterial activity against Mycobacterium tuberculosis H37Rv infected in po dosed Balb/c mouse assessed as bacterial burden in lungs administered daily through gavage starting on day 2 post infection for 4 days per week for 2 weeks each 4 days dosing followed by 2 days compound washout measured on day 12 post infection (reference value: 8 log10CFU); format: functional, Lung

Cn1c(NCCc2ccc(-c3ccc(F)cc3)cc2)nc2cc(N)ccc2c1=O
MIC80 [1]: 0.01 µM (≈ 0.00388 µg/mL)
IC50 at 40 h ([2]; hepg2): > 30 µM
MIC80 [3]: 0.01 µM
MIC80 [4]: 0.06 µM (≈ 0.0233 µg/mL)
MIC80 [5]: 0.007 µM
fraction unbound at 4 h [6]: 0.002
fraction unbound at 4 h [7]: 0.002
AUC [8]: 29000 ng·h/mL
half-life [9]: 6 h
Kp [10]: 4.5
Activity [11]: 7.4
Activity [12]: 7.1
Activity [13]: 7
Activity (Mus musculus): Toxic

COc1ccc(CCNc2nc3cc(Cl)ccc3c(=O)n2C)cc1
MIC80 [1]: 0.038 µM (≈ 0.0131 µg/mL)
IC50 at 40 h ([2]; HepG2 cells): 13.4 µM
logP [14]: 4.08
Activity [15]: Active
MIC80 [3]: 0.43 µM
inhibition of growth at 10 µM [16]: > 50%
MIC80 [4]: 0.163 µM (≈ 0.056 µg/mL)
solubility thermodynamic [17]: 11 µg/mL (≈ 32 µM)
solubility thermodynamic [18]: ≤ 1 µg/mL
MIC80 [5]: 0.013 µM
selectivity ratio [19]: > 10
Ratio [20]: >10
permeability [21]: Permeable
inhibition at 10 µM (hERG (KCNH2)): 35%
IC50 (Cytochrome P450 3A4 [22]): 4.3 µM
IC50 (Cytochrome P450 3A4 [23]): < 1 µM
Activity (Salmonella typhimurium): Non-Toxic
Drug metabolism [24]: Metabolite_Detected
Drug metabolism [25]: Metabolite_Detected

CO[C@H]1/C=C/O[C@@]2(C)Oc3c(C)c(O)c4c(O)c(c(/C=N/N5CCN(C)CC5)c(O)c4c3C2=O)NC(=O)/C(C)=C\C=C\[C@H](C)[C@H](O)[C@@H](C)[C@@H](O)[C@@H](C)[C@H](OC(C)=O)[C@@H]1C [RIFAMPIN]
Activity [26]: 3.9 log10CFU
Activity [27]: 5.2

Cn1c(NCCc2ccc(Oc3ccc(Cl)cc3)cc2)nc2cc(Cl)ccc2c1=O
MIC80 [1]: 0.036 µM (≈ 0.0159 µg/mL)
IC50 at 40 h ([2]; HepG2 cells): 10.9 µM
logP [14]: 5.66
MIC80 [3]: 1.9 µM
MIC80 [4]: 0.133 µM (≈ 0.0586 µg/mL)
solubility thermodynamic [17]: < 1 µg/mL
solubility thermodynamic [18]: < 1 µg/mL
MIC80 [5]: 0.42 µM
Ratio [20]: 8
fraction unbound at 4 h [6]: 0.001
fraction unbound at 4 h [7]: 0.001
permeability [21]: Permeable
IC50 (Cytochrome P450 3A4 [22]): 29 µM
IC50 (Cytochrome P450 3A4 [23]): 14 µM
bioavailability [28]: 90%
AUC [29]: 21000 ng·h/mL
Time [30]: > 96 h
Time [31]: > 96 h
Activity [32]: 7.5 log10CFU
Activity [33]: 7 log10CFU
Activity [34]: 7.1 log10CFU
Activity [35]: 6.3 log10CFU
minimal effective dose [36]: 600 mg/kg

Cn1c(NCCc2ccc(-c3ccc(F)cc3)cc2)nc2cc(Cl)ccc2c1=O.O=S(=O)(O)O
Activity [37]: 6.6 log10CFU
Activity [38]: 5.8 log10CFU
Activity [39]: 5.5 log10CFU
Activity [40]: 4.9 log10CFU
Time [41]: > 24 h
AUC [42]: 140000 ng·h/mL
AUC [43]: 980000 ng·h/mL

CC[C@@H](CO)NCCN[C@@H](CC)CO [ETHAMBUTOL]
Activity [44]: 7 log10CFU
